Ends that are not written are not given here.
Tests used:
S. aureus AB94004 [1] = experiment: Enzyme release assay (catalase); type: cell-based; conditions: S. aureus AB94004, 37°C; 0.9% saline negative control; Figure 4C
Description: (§1) Figure 4 Secondary structure and enzyme release assay of Kn2-7. (A) and (B) Secondary structure analysis of the Kn2-7 and BmKn2 peptides. (A) Circular dichroism spectra of 0.1 mg/mL of Kn2-7 in water, 30% TFE/H2O or 70% TFE/H2O. (B) Circular dichroism spectra of 0.1 mg/mL of BmKn2 in water, 30% TFE/H2O or 70% TFE/H2O. (C) and (D) Enzyme release assay. (C) S. aureus AB94004 treated with Kn2-7 or BmKn2 was harvested, and the catalase activities of the supernatants were measured; 0.9% saline was used as the negative control, and ampicillin sodium was used as the antibiotic control. (D) E. coli AB94012 treated with Kn2-7 or BmKn2 was harvested, and the catalase activities in the supernatants were measured; 0.9% saline was used as the negative control, and kanamycin was used as the antibiotic control.
(§2) Bacterial suspensions and serial-diluted peptides were mixed at a ratio of 4∶1 in different tubes with a final volume of 2 ml. The mixtures were then incubated at 37°C with continuous shaking. At each time point, 200 µl of the treated bacterial suspension was transferred to sterilized tubes. After centrifugation, the supernatants were transferred to a sterilized 1.5-ml tube, and catalase activity was measured with a Catalase Assay Kit (Beyotime, Jiangsu, China) using the method for measuring peroxidase activity.

E. coli AB94012 [2] = experiment: Enzyme release assay (catalase); type: cell-based; conditions: E. coli AB94012, 37°C; 0.9% saline negative control; Figure 4D
Description: as §1, §2

Biolayer interferometry = type: binding, S. aureus; conditions: 10 µg/mL biotinylated peptide on biosensor tips, 500 µg/mL LTA, 10 mM HEPES pH 7.4, 0.14 M NaCl, 30°C
Description: Figure 7 Binding assay of Kn2-7 and LTA or LPS. (A) Interaction of 10 µg/ml of Kn2-7 with 500 µg/ml of LPS or 500 µg/mL of LTA. Curve A3 is LPS, curve B3 is LTA and curve C3 is buffer. (B) Interaction of 10 µg/mL of BmKn2 with 500 µg/mL of LPS or 500 µg/mL of LTA. Curve D3 is LPS, curve E3 is LTA and curve F3 is the buffer. (C) MICs of Kn2-7 and BmKn2 treated with LTA or LPS against S. aureus and E. coli.
Biolayer Interferometry (BLI) experiments were performed on OCT RED (FortéBio, Inc.). A total of 500 µg/mL of lipoteichoic acid from S. aureus (LTA, Sigma, L2515), lipopolysaccharides from E. coli (LPS, Sigma, L2880) or buffer (10 mM HEPES, pH 7.4 and 0.14 M NaCl) was dispensed into 96-well microtiter plates at a volume of 200 µl per well. The operating temperature was 30°C. Biosensor tips (FortéBio, Inc., Menlo Park, CA) were pre-wetted with the buffer for 60 seconds at baseline. Then, 10 µg/mL Biotin-Kn2-7 or Biotin-BmKn2 was loaded onto the biosensor tips for 900 seconds. Baseline 2 was subsequently established for 300 seconds. Dissociation of Kn2-7 or BmKn2 occurred for 900 seconds in the buffer. Data were generated automatically by the Octet® User Software (version 3.1) and were subsequently analyzed from the resultant text files using Excel 2000.

S. aureus AB94004 [3] = experiment: Growth inhibitory assay (growth curves); type: cell-based; conditions: at a concentration of MICs; measurements at 630 nm, 96-well plates; Figure 2A
Description: (§3) Figure 2 Gowth inhibitory activities of Kn2-7. (A) Growth curves of S. aureus AB94004 treated with Kn2-7, BmKn2 or antibiotics. (B) Growth curves of MRSA P1386 treated with Kn2-7, BmKn2 or antibiotics. (C) Growth curves of E. coli AB94012 treated with Kn2-7, BmKn2 or antibiotics.
(§4) The time growth curves of S. aureus and MRSA treated with BmKn2 or its derivatives were determined based on measurements taken at 630 nm at each time point. Different concentrations of peptide were added to the tested strains, which were cultured in 96-well plates using the same method as was used for determining the MIC.

E. coli AB94012 [4] = experiment: Growth inhibitory assay (growth curves); type: cell-based; conditions: at a concentration of 6.25 µg/mL; Figure 2C
Description: as §3, §4

E. coli AB94012 [5] = experiment: Bactericidal assay (time-killing); type: cell-based; conditions: samples at 0, 5, 15, 30, 60 min, colony counts, average of three dishes
Description: Figure 5 Bactericidal assays of the Kn2-7 and BmKn2 peptides against S. aureus and E. coli AB94012. Set point indicates untreated bacteria, and 0 minutes was defined as the time of the first sample collection, which was immediately after mixing bacteria and Kn2-7 or BmKn2. The other samples were collected at 5 min, 15 min, 30 min or 60 min. All of the counts were the average of three dishes, and the experiment was repeated at least three times. (A) Time-killing curve of Kn2-7 against S. aureus AB94004. (B) Time-killing curve of BmKn2 against S. aureus AB94004. (C) Time-killing curve of Kn2-7 against E. coli AB94012.
Bactericidal curves for Kn2-7 and BmKn2 were determined against S. aureus AB94004 and E. coli AB94012. A 400 µl aliquot of the peptide solution was added to 1,600 µl of a bacterial suspension. At each time point, 200 µl of the treated bacterial suspension was transferred to a sterilized 1.5-ml tube. After centrifugation at 1,000×g for 5 min, the supernatant was removed, and the pellet was resuspended in 200 µl of LB medium. The bacterial suspensions were placed on agar plates and incubated at 37°C until viable colonies could be counted.

MRSA P1386 = experiment: Growth inhibitory assay (growth curves); type: cell-based, S. aureus; conditions: measurements at 630 nm, 96-well plates; Figure 2B
Description: as §3, §4

S. aureus AB94004 [6] = type: cell-based; conditions: for MIC S.aureus, substance alone: controls of the competition assay (Figure 7C): untreated peptide, or LTA / LPS alone
Description: To confirm the results of the BLI titrations, 250 µg/mL of Kn2-7 or BmKn2 was mixed with an equal volume of 1 mg/mL LTA or LPS. Then, the MICs of Kn2-7 or BmKn2 mixed with LTA against S. aureus and E. coli were measured. […] The MICs of Kn2-7 and BmKn2 treated with LTA against S. aureus were 25 and 12.5 µg/mL, respectively.
A total of 250 µg/mL of each peptide solution was mixed with an equal volume of 1 mg/mL of the LTA or LPS solution. Then, the MICs of BmKn2 and Kn2-7 treated with LTA or LPS against S. aureus AB94004 and E. coli AB94012 were measured.

| Substance | Catalase activity of the supernatant over time (S. aureus AB94004 [1]) | Catalase activity of the supernatant over time (E. coli AB94012 [2]) | Binding to LTA (BLI) (Biolayer interferometry) | Growth inhibition of S. aureus (growth curve) (S. aureus AB94004 [3]) | Growth inhibition of E. coli AB94012 (growth curve) (E. coli AB94012 [4]) | Bactericidal effect (time-killing curve) (E. coli AB94012 [5]) | Growth inhibition of MRSA P1386 (growth curve) (MRSA P1386) | MIC S.aureus, peptide treated with LPS (S. aureus AB94004 [6]; 250 µg/mL peptide mixed with equal volume of 1 mg/mL LPS) | MIC S.aureus, peptide treated with LTA (S. aureus AB94004 [6]; 250 µg/mL peptide mixed with equal volume of 1 mg/mL LTA) | MIC S.aureus, substance alone (S. aureus AB94004 [6]) |
| --- | --- | --- | --- | --- | --- | --- | --- | --- | --- | --- |
| FIGAIARLLSKIF-NH2 [BmKn2] | almost the same catalase activity at each time point | low catalase activity at each time point | bound strongly | inhibited the growth of S. aureus completely | had no effect against E. coli AB94012 | not able to kill E. coli AB94012 | inhibited the growth of MRSA P1386 completely | 6.25 mg/L | 12.5 mg/L | 6.25 mg/L |
| FIKRIARLLRKIF [Kn2-7] | almost the same catalase activity at each time point | nearly the same high enzymatic activity at each time point | bound strongly | inhibited the growth of S. aureus completely | inhibited the growth of E. coli AB94012 | able to kill E. coli AB94012 rapidly | inhibited the growth of MRSA P1386 completely | – | – | 3.13 mg/L |
